Data as given in US20100041756A1, “METHOD OF MODULATING B CELL FUNCTIONING” (priority 2004, published 2010).

Assays:
Format in all cases: in vivo, mouse
[1] = system: DBA/1 mice immunised with type II collagen in CFA; test: Development of collagen-induced arthritis, treatment from the day of immunisation (Example 4)
Description: Type II collagen was purified from bovine cartilage, as described [Williams, R. O. 2004, Methods Mol. Med. 98:207-216] and solubilized by stirring overnight at 4° C. in acetic acid (0.1M) or Tris buffer (0.05 M Tris, containing 0.2 M NaCl, pH 7.4). Tranilast was synthesised by Angiogen Pharmaceuticals Pty. Ltd. For in vivo studies Tranilast was dissolved at a maximum concentration of 10 mg/ml in 1% sodium bicarbonate by heating for 1 h at 70° C. Upon cooling, an emulsion was formed. For in vitro studies Tranilast was dissolved in dimethyl sulphoxide (DMSO). 3-Hydroxy-anthranilic acid (3-HAA) was purchased from Sigma (Poole, UK) and dissolved in PBS.
Male DBA/1 mice (8-12 weeks old) were immunized intradermally at the base of the tail with bovine type II collagen (200 μg) emulsified in complete Freund's adjuvant (CFA; Difco, West Moseley, UK). Arthritis was monitored clinically using the following scoring system: 0=normal, 1=slight swelling and/or erythema, and 2=pronounced oedematous swelling. Each limb was graded, giving a maximum score of 8 per mouse. In addition, paw-swelling was measured using calipers.
ELISA plates (Nunc, Uxbridge, UK) were coated with 2 μg/ml of bovine CII dissolved overnight in Tris Buffer (0.05 M Tris, containing 0.2 M NaCl, pH 7.4) blocked with 2% bovine serum albumin (BSA) and then incubated with serial dilutions of test sera. A reference sample was included on each plate. Bound total IgG, IgG1 or IgG2a was detected by incubation with HRP-conjugated sheep anti-mouse IgG, IgG1 or IgG2a, followed by TMB substrate. Optical density was measured at 450 nm.
In order to assess its anti-arthritic potential, Tranilast was injected into DBA/1 mice (200 mg/kg/day) from the day of immunisation with type II collagen in CFA. By day 28, 5 of 7 (71%) vehicle treated mice had developed arthritis of moderate severity (clinical score 2.8±0.6), whilst 1 of 7 (14%) Tranilast-treated mice had developed mild arthritis (clinical score 1).

IL-10 = test: Serum IL-10 in mice with established CIA (ELISA); conditions: 10 days treatment (FIG. 7)
Description: Mice with established CIA were treated with 3,4-DAA or vehicle (n=7) for 10 days (see FIG. 6), then bled. IL-10 in the sera was measured by ELISA.
Inguinal lymph nodes were excised from Tranilast-treated and control mice. Alternatively, inguinal lymph nodes were removed from untreated arthritic mice (day 1-5 of arthritis) and Tranilast was added in vitro. In both cases, LNC were cultured in RPMI 1640 containing FCS (10% v/v), 2-mercaptoethanol (20 μM), L-glutamine (1% w/v), penicillin (100 U/ml) and streptomycin (100 μg/ml) in the presence or absence of type II collagen (50 μg/ml). Secreted cytokines (IFN-γ, IL-5, TNFα and IL-10) were measured after 72 h. by ELISA. In brief, 96 well ELISA plates were coated with the respective capture antibody, blocked with bovine serum albumin (2% w/v), and then incubated with LNC culture supernatants (neat) overnight at 4° C. After washing, bound cytokines were detected using biotinylated detect antibodies. A standard curve was generated using known concentrations of the appropriate recombinant cytokine and the concentrations of cytokines present in culture supernatants were estimated by reference to the standard curve.

[2] = system: DBA/1 mice with established collagen-induced arthritis; test: Effect of tranilast on established collagen-induced arthritis (Example 1); conditions: for Histological score (mean ± SE): 10 days, score 0-3
Description: FIG. 1 is a graphical representation of the amelioration of established collagen-induced arthritis (CIA) by intraperitoneal administration of tranilast. DBA/1 mice were immunised with bovine type II collagen in complete Freund's adjuvant in order to induce arthritis. After onset of clinical disease mice were randomly assigned to different treatment groups and given tranilast at 100, 200 or 400 mg/kg/day or vehicle control. Clinical scores were assessed throughout the treatment period using a clinical scoring system described in the Examples. The maximum possible score per mouse is 8. There were 7-10 mice per treatment group.
FIG. 2 is a graphical representation of the amelioration of established CIA by administration of tranilast. DBA/1 mice were immunised with bovine type II collagen in complete Freund's adjuvant in order to induce arthritis. After onset of clinical disease mice were randomly assigned to different treatment groups and given tranilast at 100, 200 or 400 mg/kg/day (i.p.) or vehicle control. Paw-swelling was measured throughout the treatment. There were 7-10 mice per treatment group.
Bovine CII was purified and prepared as previously described (9) and solubilised by stirring overnight at 4° C. in 0.1M acetic acid.
Male DBA/1 mice (7-8 animals/group) were immunised i.d. at 8-12 weeks of age with bovine CII (200 μg/mouse), emulsified in CFA (Difco Laboratories, West Moseley, UK). Beginning at 14 days after immunisation, mice were inspected daily for signs of arthritis and treatment was initiated on day 1 of arthritis. This research was approved by the local Ethical Review Process Committee and by the Home Office of the United Kingdom.
Tranilast was dissolved in 1% NaHCO3 by heating to 70° C. and injected i.p. at 100, 200 or 400 mg/kg/day.
The development of arthritis was assessed daily for the duration of the experiment. The clinical severity of arthritis was graded as follows, 0=normal, 1=slight swelling and/or erythema, 2=pronounced oedematous swelling. Each limb was graded, allowing a maximal clinical score of 8 for each animal. Swelling of hind paws was recorded with a pair of calipers. All clinical evaluations were performed in a blinded manner.
At the end of the treatment period the mice were killed, bled and their joints were processed for histology. The first limb to show clinical evidence of arthritis was removed, fixed, decalcified, and embedded before sectioning and staining with haemotoxylin and eosin. Saggital sections were examined by microscopy in a blinded fashion and joints were graded as follows: 0=normal; 1=mild synovitis without cartilage loss or bone erosion; 2=moderate or severe synovitis with erosions present but normal joint architecture intact; 3=severe synovitis with extensive erosions and normal joint architecture disrupted.
DBA/1 mice were immunised with bovine type II collagen in complete Freund's adjuvant in order to induce arthritis. After onset of clinical disease mice were randomly assigned to different treatment groups and given tranilast at 100, 200 or 400 mg/kg/day (i.p.) or vehicle control. Treatment was continued for 10 days after which time the mice were killed and paws were processed for histology. Joints were graded histologically in a blinded fashion.

COc1ccc(/C=C/C(=O)Nc2ccccc2C(=O)O)cc1OC [Tranilast, 2-[[3-(3,4-dimethoxyphenyl)-1-oxo-2-propenyl]amino]benzoic acid] was tested, and the “anti-collagen IgG1 or IgG2a levels in sera” value ([1]; 200 mg/kg/day from the day of immunisation) was “no change”, the “mice that had developed arthritis by day 28” value ([1]; 200 mg/kg/day from the day of immunisation, 1 of 7 mice) was 14% and the clinical score ([1]; day 28, 200 mg/kg/day from the day of immunisation) was 1. The “circulating IL-10 levels” value (IL-10) was “dose-dependent increase”, the “circulating IL-10 levels” value (IL-10; listed as 3,4-DAA) was “increased IL-10 levels” and the “Histological score (mean ± SE)” value ([2]; 100 mg/kg/day i.p.) was 1.64 ± 0.35. For the same compound, the “Histological score (mean ± SE)” value ([2]; 200 mg/kg/day i.p.) was 1.19 ± 0.35, the “Histological score (mean ± SE)” value ([2]; 400 mg/kg/day i.p.) was 0.57 ± 0.20 and the clinical scores ([2]; 100, 200 or 400 mg/kg/day i.p., 10 days (FIG. 1)) was “reduced clinical scores in a dose-dependent fashion”. For the same compound, the paw-swelling ([2]; 100, 200 or 400 mg/kg/day i.p., 10 days (FIG. 2)) was “reduced paw-swelling in a dose-dependent fashion” and the “synovitis, cartilage loss and bone erosion (histology)” value ([2]; compared to control mice, end of 10 day treatment) was “reduced level of synovitis, cartilage loss and bone erosion”.
